# Publication PMC5701173, “An activity-dependent proximity ligation platform for spatially resolved quantification of active enzymes in single cells” (Nature Communications, 2017)
# Target: T1, Neutral cholesterol ester hydrolase 1 (NCEH1) (Homo sapiens, UniProt Q6PIU2)
# T1 construct: endogenous full-length enzyme in live PC3 cells
# T1 sequence (Q6PIU2 1-408): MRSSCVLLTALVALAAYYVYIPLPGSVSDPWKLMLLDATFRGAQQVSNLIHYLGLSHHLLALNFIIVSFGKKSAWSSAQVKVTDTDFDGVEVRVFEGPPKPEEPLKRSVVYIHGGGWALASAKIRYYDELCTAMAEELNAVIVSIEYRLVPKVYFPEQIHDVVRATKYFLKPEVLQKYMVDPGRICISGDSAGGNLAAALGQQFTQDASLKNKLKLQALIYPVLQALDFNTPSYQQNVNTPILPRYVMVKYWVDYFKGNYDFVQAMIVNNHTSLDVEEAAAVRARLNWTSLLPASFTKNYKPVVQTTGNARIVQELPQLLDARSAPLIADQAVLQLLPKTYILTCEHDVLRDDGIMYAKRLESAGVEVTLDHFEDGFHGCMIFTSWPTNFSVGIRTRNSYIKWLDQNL
# Test: competitive activity-dependent proximity ligation (FP-Bio probe) in live cells; gel-based ABPP in SKOV3
# Assay type: cell-based
smiles,measurement,value
CC(C)c1ccccc1OC(=O)NCCc1ccc2ccccc2c1 [JW480],IC50,6 nM
